Results as given in US20180008572A1, “ANTIMETASTATIC COMPOSITION COMPRISING AT LEAST ONE FLAVANOL-TYPE COMPOUND” (priority 2014, published 2018).

Assays:
[1] = test system: SiHa-F3 cells; test: Cell survival of SiHa-F3 tumor cells (crystal violet or MTT); type: cell-based, human; conditions: 1 μM
Protocol: Tests of cell migration and of survival of the treated cells were carried out with a model of super-invasive tumor cells obtained from a human cervical adenocarcinoma cell line, SiHa. The selection of the super-invasive SiHa-F3 cells (F3 on the graphs) was carried out after three consecutive invasions in vitro in permeable supports of Transwell® type coated with Matrigel® (Porporato P E et al., Cell Rep 2014, 8:754-766).
The cell survival, in order to exclude any toxic effect of the products tested, was estimated either on the basis of the quantification of the cells stained with crystal violet, or by measuring the mitochondrial succinate dehydrogenase (SDH) activity on the reduction of the MTT tetrazolium salt (suspension of formazan obtained in DMSO and measurement of absorbance at 570 nm).
Measurement of cell viability: 20 000 SiHa-F3 cells were seeded and treated with the indicated compounds overnight (16 h). The cells were then fixed for 3 min with methanol, stained with 0.23% crystal violet, and resuspended in DMSO in order to measure the absorbance at 595 nm (Victor X4 spectrophotometer, Perkin Elmer); or alternatively incubated for 3 h at 37° C. in a saturating solution of MTT in HBSS containing 10 mM of HEPES, and resuspended in DMSO in order to measure the absorbance at 630 nm (Victor X4 spectrophotometer, Perkin Elmer). […]

[2] = test system: melanoma cells; conditions: mice having received cancer cells by intravenous injection; cited from earlier work
[3] = test system: SiHa-F3 cells; test: Tumor cell migration in a Boyden chamber; type: cell-based, human; conditions: for migration of the cancer cells (% of the control): Boyden chamber, 16 h, 100 nM to 1 mM
Protocol: Tests of cell migration and of survival of the treated cells were carried out with a model of super-invasive tumor cells obtained from a human cervical adenocarcinoma cell line, SiHa. The selection of the super-invasive SiHa-F3 cells (F3 on the graphs) was carried out after three consecutive invasions in vitro in permeable supports of Transwell® type coated with Matrigel® (Porporato P E et al., Cell Rep 2014, 8:754-766). […] The actual migration of the tumor cells was measured in a Boyden chamber with 50 000 cells per well and 0.15% of fetal bovine serum (FBS) used as chemoattractant. The pore diameters of the porous membrane separating the two compartments of the Boyden chamber were fixed at 8 μm. After 16 hours of migration, the cells were first fixed with methanol for 3 min and then stained with crystal violet. The culture medium used was DMEM 4.5 g/l of glucose, GlutaMAX®, 1% of a solution of penicillin/streptomycin and 10% of fetal bovine serum. Cell migration measurements: A 48-well reusable Boyden chamber (Neuroprobe) was used according to the manufacturer's instructions. Briefly, medium containing 0.15% of fetal bovine serum served as chemoattractant in the lower compartment, a polycarbonate membrane pierced with pores 8 μm in diameter separated the two compartments, and 50 000 SiHa-F3 cells in suspension in the presence of the indicated compounds were introduced into the upper compartment. The migration of the cells was quantified after an overnight period (16 h). The cells, having migrated, were fixed for 3 min in methanol, stained with 0.23% crystal violet for 30 min, and counted on photographs taken at a magnification of ×2.5 using an inverted-phase microscope (Axiovert and Mrc camera, Zeiss). […] Results were expressed as % of the control.

[4] = compared with epigallocatechin-3-gallate (EGCG); cited from earlier work
[5] = test system: SiHa-F3 cells; test: Level of reactive oxygen species (ROSs), DCFDA technique; type: cell-based, human; conditions: 1 μM, 60 minutes of pretreatment
Protocol: Moreover, an evaluation of the impact of the products tested on the level of reactive oxygen species (ROSs) observed was carried out according to the DCFDA technique after 60 minutes of pretreatment of the SiHa-F3 metastatic progenitor cells with the products tested. Measurement of total cell ROSs: 20 000 SiHa-F3 cells were seeded before being treated for 1 h with the compounds indicated. The cells were then incubated for 30 min at 37° C. in a 1 μM solution of H2-DCFDA (Invitrogen) in HBSS containing 10 mM of HEPES, before measurement of the absorbance at 535 nm (Victor X4 spectrophotometer, Perkin Elmer).

[6] = test system: B16F10 murine melanoma cells; test: Model of experimental lung metastases: pretreated B16F10 cells injected into the caudal vein; type: in vivo, C57BL/6 mice; conditions: B16F10 cells pretreated with rotenone 10 nM + 10 μM compound, 14 days after injection
Text: The B16F10 tumor cells come from the ATCC collection. The male 6- or 7-week-old C57BL/6 mice were acquired from the Janvier laboratories, and the protocols were applied with the agreement of the UCL ethics committee and while adhering to Belgian laws relating to animal care. Model of experimental metastases: the B16F10 cells were pretreated with DMSO (0.5%, rotenone carrier, negative control) or rotenone (respiratory chain complex I inhibitor and mitochondrial superoxide inducer as described in Porporato P E et al., Cell Rep 2014, 8:754-766, positive control), alone or in combination with the indicated compounds for 6 h. The cells were then detached, counted and resuspended in a proportion of 10×10^6 cells/ml in HBSS without calcium or magnesium. 10^6 cells (i.e. 100 μl of the suspension) were then injected into the caudal vein of C57BL/6 mice. 14 days after injection of the cells, the mice were sacrificed, the lungs were isolated and the metastases (spots positive for melanin) were counted under a dissection microscope.

| SMILES | survival of the tumor cells [1] | melanoma cell invasion [2] | decrease in the number of tumor cells migrating from one compartment to the other of the Boyden cell ([3]; 1 μM, 16 hours of migration) | migration of the cancer cells (% of the control) [3] | anti-proliferative effect [4] | reduction in the level of reactive oxygen species (ROSs) produced by the cells [5] | formation of lung metastases [6] |
| --- | --- | --- | --- | --- | --- | --- | --- |
| Oc1cc(O)c2c(c1)O[C@H](c1ccc(O)c(O)c1)[C@@H](O)C2 [(+)-catechin] | does not affect the survival of the tumor cells | inhibited | does not however make it possible to significantly decrease | not the (+)-catechin, inhibit the migration of the cancer cells | negligible | no impact | – |
| O=C(O[C@@H]1Cc2c(O)cc(O)cc2O[C@@H]1c1cc(O)c(O)c(O)c1)c1cc(O)c(O)c(O)c1 [epigallocatechin gallate] | – | – | – | inhibit the migration of the cancer cells | – | – | not Epigallocatechin Gallate Reduces the Formation of Lung Metastases |
